# Literature values, collected in PMC5036423 (CPT: Pharmacometrics & Systems Pharmacology, 2016).
# How the values were obtained:
# [1] = tested on: intact PTH; settings: first-in-human phase I study
# [2] = 4 weeks of 5 mg TIW i.v. dosing, patients on HD
smiles,measurement,setting,value
CC(=O)N[C@H](CSSC[C@H](N)C(=O)O)C(=O)N[C@H](C)C(=O)N[C@H](CCCNC(=N)N)C(=O)N[C@H](CCCNC(=N)N)C(=O)N[C@H](CCCNC(=N)N)C(=O)N[C@H](C)C(=O)N[C@H](CCCNC(=N)N)C(N)=O [etelcalcetide],Accumulation in Cmax,[2],approximately twofold
same,Accumulation in area under the curve over 48 hours,[2],threefold
same,Plasma exposure (Cmax and area under the curve over 48 hours) versus dose,TIW i.v. administration in patients on HD,increased proportionally with the dose
same,Fraction of the drug eliminated by TIW HD,patients receiving TIW hemodialysis,~50%
same,Effect on intact PTH in healthy subjects,[1],showed intact PTH lowering effect
